Entries after “also recorded” stand apart in the source; their conditions may differ. Read-outs that look alike come from different tables or passages of the source.
Legend:
[1] = test system: pediatric patients with moderate-to-severe AD (adolescents) or severe AD (children); assay: Phase 2a open-label ascending-dose study of dupilumab in pediatric AD (efficacy and safety); format: in vivo, human; details: for patients who achieved IGA 0-1 / peak pruritus NRS improved by / baseline EASI improved by: Week 12; for baseline EASI improved by: after repeated weekly doses; for reduction in EASI score from baseline: week 2
Method: This Example describes a phase 2a, multicenter, open-label, ascending-dose, sequential-cohort study (NCT02407756) which included adolescents (12-17 years) with moderate-to-severe AD and children (6-11 years) with severe AD, uncontrolled by topical medications. Patients received 2 mg/kg or 4 mg/kg single-dose subcutaneous dupilumab with 8 weeks follow-up, followed by 4 weekly 2 mg/kg or 4 mg/kg doses.
This was conducted as a phase 2a, multicenter, open-label, ascending dose, sequential cohort study investigating the safety, tolerability, pharmacokinetics (PK), immunogenicity, and efficacy of single-dose and repeat-doses of subcutaneously administered (SC) dupilumab in pediatric patients with moderate-to-severe AD (for adolescents ≥12 to <18 years of age) or severe AD (for children ≥6 to <12 years of age) that was not adequately controlled by topical treatments.
Two sequential ascending SC dose cohorts were planned: dose cohort 1 (2 mg/kg) and dose cohort 2 (4 mg/kg) up to a maximum dose of 300 mg. Within each dose cohort, approximately 36 to 40 patients were planned to be enrolled in 2 age subsets: subset A (adolescents ≥12 to <18 years of age) and subset B (children ≥6 to <12 years of age). Enrollment and study dosing started with cohort 1A (2 mg/kg, adolescent age subset) and proceeded in sequence to cohort 1B (2 mg/kg, children ≥6 to <12 years of age subset), cohort 2A (4 mg/kg, adolescent age subset), and cohort 2B (4 mg/kg, children ≥6 to <12 years of age subset); a safety review of data from the previous cohort(s) was performed before proceeding to the next cohort.
The study consisted of a screening period (day −35 to day −1), a baseline visit, Part A (including a single-dose treatment followed by an 8-week semi-dense PK sampling period), and Part B (including a 4-week repeat-dose treatment period [4 weekly doses] followed by an 8-week follow-up period).
Sterile dupilumab drug product 150 mg/mL was provided in an aqueous buffered vehicle, pH 5.0. It was supplied in a 5-mL vial containing 2.5 mL (150 mg/mL) with a withdrawable volume of 2.0 mL or 300 mg of dupilumab. Study drug was administered SC by the investigator or other qualified study personnel at the following dose and dosing schedules: • For dose cohort 1: 2 mg/kg at day 1 as a single dose in Part A, then weekly at day 1 to week 3 in Part B as repeat doses • For dose cohort 2: 4 mg/kg at day 1 as a single dose in Part A, then weekly at day 1 to week 3 in Part B as repeat doses
The primary objective was characterizing the PK profiles of dupilumab in pediatric AD patients aged ≥6 to <18 years. The secondary endpoints were: • Incidence of TEAEs • Percent change from baseline in Eczema Area and Severity Index (EASI) • Percent change from baseline in SCORing Atopic Dermatitis (SCORAD) score • Percent change from baseline in Pruritus Numerical Rating Scale (NRS) • Percentage of patients with an IGA score of 0 or 1 • Change from baseline in % BSA affected by AD Study Variables and Procedures
Safety and tolerability was assessed by vital signs, physical examinations, clinical laboratory tests, and clinical evaluations. Patients were asked to monitor all adverse events (AEs) experienced from the time of informed consent/assent until their last study visit. Serum samples were collected for assay of dupilumab levels, and PK parameters were calculated using the dupilumab concentration data. Serum samples were collected for assay of ADA, and exploratory analyses. Efficacy was assessed during the study at specified clinic visits using the Pruritus NRS, SCORAD, and EASI that measure the extent and severity of AD, and the IGA that rates the overall severity of AD.

CYP3A = assay: Effect of dupilumab on PK of CYP substrate cocktail: midazolam; details: 600 mg loading dose, then 300 mg weekly
Method: (§1) Subcutaneous dupilumab was administered as a 600 mg loading dose on Day 8, followed by a weekly dose of 300 mg from Day 15 to Day 50. PK parameters included Geometric Mean Ratios (GMR) of AUClast (area under the plasma concentration-time curve from time zero to the time of the last quantifiable concentration) and Cmax (maximum observed plasma concentration) measured at Day 1 and Day 36, while efficacy assessments included changes in Eczema Area and Severity Index (EASI) scores (scale 0-72).

[2] = test system: adults with moderate-to-severe AD; details: for decrease in mean EASI (SD) score: 600 mg on Day 8, then 300 mg weekly
Method: as §1

In the case of “dupilumab: fully human anti-IL-4R antibody; heavy chain SEQ ID NO: 9, light chain SEQ ID NO: 10”, the “patients who achieved IGA 0-1” value ([1]; adolescent 2 mg cohort) is reported as 10%, the “peak pruritus NRS improved by” value ([1]; adolescent 2 mg cohort) is reported as 30.8% and the “baseline EASI improved by” value ([1]; adolescent 2 mg cohort) is reported as 66.4%. For the same substance, the “patients who achieved IGA 0-1” value ([1]; adolescent 4 mg cohort) was 35%, the “peak pruritus NRS improved by” value ([1]; adolescent 4 mg cohort) was 37.6% and the “baseline EASI improved by” value ([1]; adolescent 4 mg cohort) was 69.7%. The “reduction in EASI score from baseline” value ([1]; adolescent patients, single dose 2 mg/kg) was 34%, the “reduction in EASI score from baseline” value ([1]; adolescent patients, single dose 4 mg/kg) was 51% and the “patients who achieved IGA 0-1” value ([1]; children 2 mg/kg cohort) was 16.7%. The “peak pruritus NRS improved by” value ([1]; children 2 mg/kg cohort) was 41.6%, the “baseline EASI improved by” value ([1]; children 2 mg/kg cohort) was 76.2% and the “patients who achieved IGA 0-1” value ([1]; children 4 mg cohort) was 21.1%. For the same substance, the “peak pruritus NRS improved by” value ([1]; children 4 mg cohort) was 39.6%, the “baseline EASI improved by” value ([1]; children 4 mg cohort) was 63.4% and the “reduction in EASI score from baseline” value ([1]; children, single dose 2 mg/kg) was 37%. The “reduction in EASI score from baseline” value ([1]; children, single dose 4 mg/kg) was 33%, the safety and tolerability ([1]; single and repeated weekly doses of 2 mg/kg and 4 mg/kg, both pediatric age groups) was “No new safety signals; also recorded: generally safe and well tolerated” and the “effect of dupilumab on the PK of midazolam / activity of CYP3A” value (CYP3A) was “no meaningful effect; also recorded: does not have a meaningful effect”. The “decrease in mean EASI (SD) score” value ([2]; Day 35) was 59.3% (37.6), the “decrease in mean EASI (SD) score” value ([2]; Day 50) was 87.2% (13.4) and the “patients with at least one adverse event (AE)” value ([2]; in vivo) was 3 patients. The “serious AE leading to treatment discontinuation (systemic inflammatory response syndrome)” value ([2]; in vivo) was 1.

From patent US10485844B2, “Methods for treating severe atopic dermatitis by administering an IL-4R inhibitor” (Regeneron Pharmaceuticals, Inc., priority 2016, dated 2019)
